Paper PMC2424174, “Suppression of Tumor Growth and Angiogenesis by a Specific Antagonist of the Cell-Surface Expressed Nucleolin” (PLoS ONE, 2008)

Key:
[1] = test system: U87MG cells; assay: Colony formation in soft agar, U87MG; format: cell-based, human; conditions: 5 µM HB-19, U87MG
Procedure: Figure 4 HB-19 inhibits colony formation in soft agar by tumor cell lines. (A) MDA-MB-231 cells in culture medium were seeded in triplicate in the absence (histogram C) or presence of 0.1, 0.5 and 1 of µM HB-19, or 0.1 µM of the anti-nucleolin mAb MS-3 or control IgG, or 10 µM bisphosphonate (BisP). (B) Various tumor cell lines (as indicated) in culture medium were seeded in triplicate in the absence (histogram Control) or presence of 5 µM HB-19. After 10–21 days, colonies with diameters greater than 50 µm were scored as positive. Statistical significance: *0.01<p<[…], **p<0.01, ***p<0.001.
Carcinoma cells (2×10^4) were mixed in 0.35% top agar, diluted in complete medium (DMEM containing 10% FBS) in the absence or presence of HB-19, and plated onto 0.8% bottom agar into 12-well plates. Cells were treated twice a week during 10 to 21 days. Colonies with diameters greater than 50 µm were scored as positive using a phase contrast microscope equipped with a measuring grid at magnification 100× [45]. The number of colonies was determined by analyzing 5 fields/well from 3 wells and the test was repeated at least twice.

[2] = test system: HUVECs; assay: Proliferation of VEGF stimulated HUVECs; format: cell-based, human; conditions: 0.25 nM VEGF165; 1 µM HB-19 or 0.1 µM mAb MS-3; 72 h; mean of triplicate
Procedure: Figure 6 Inhibition of in vitro and in vivo angiogenesis by HB-19. (A) HB-19 inhibits proliferation of HUVECs. Twenty-four hours after seeding HUVECs in 2% FBS, cells were stimulated by 0.25 nM VEGF165, in the absence or presence of 1 µM HB-19 or 0.1 µM anti-nucleolin mAb MS-3 as indicated. After 72 h, cell number was determined by crystal violet staining. The data are reported as the mean of triplicate samples. (B) HB-19 inhibits migration of HUVECs. Cell migration was studied using a modified Boyden chamber. Cells were incubated (4 h at 37°C) with VEGF165, HB-19, or anti-nucleolin mAb MS-3 as above. Cells that migrated through the pore to the lower filter surface were counted and are shown as number per microscopic field at ×100 magnification. The data are the mean of three independent high-power fields/well performed in duplicate in two independent experiments. […] Aortic endothelial (ABAE) cells in the absence or presence of 3 nM PTN, 0.5 nM VEGF165, and 3 nM FGF-2 were seeded on a three-dimensional collagen gel in complete medium. […] Tubular network structures were quantified using phase contrast microscopy (×100). […] Quantification of endothelial cell invasion into the Matrigel was determined and is expressed as a mean of five fields per section from 3 Matrigel-plug sections per mouse. The results are expressed as the mean of five mice per group. […]

[3] = test system: chick embryo chorioallantoic membrane; assay: Chick embryo chorioallantoic membrane (CAM) angiogenesis assay; format: in vivo, chicken; conditions: 48 h; for relative percent inhibition of angiogenesis: total vessel length vs control, P<0.001, 15–20 eggs
Procedure: Figure 7 Inhibition of in vivo angiogenesis by HB-19 in chick embryo chorioallantoic membrane (CAM) assay. Macroscopic observation of the angiogenic response induced by gelatin sponges (1 cm^2), soaked with 40 µl of PBS (Control) or 40 µl PBS containing HB-19 at concentrations of 10, 20 and 50 µM (corresponding to 0.4, 0.8 and 2 nmols of HB-19, respectively). After 48 h, CAMs were fixed and excised from the eggs . Photographs were taken and the total length of the vessels was measured using the Image PC image-analysis software (Scion Corporation, USA)[48]. Each sample was tested three times using 15–20 eggs for each data point. The relative percent inhibition (P<0.001) of angiogenesis compared to the control was 27, 36 and 51% in the presence of 0.4, 0.8 and 2 nmols of HB-19, respectively.
Leghorn fertilized eggs (Pindos, Greece) were incubated for 4 days at 37°C. A window was then opened on the eggshell, exposing the CAM. The window was covered with sterile tape, and the eggs were returned to the incubator. On day 9 of embryo development, 20 µl of distilled water alone as a control or containing HB-19 was applied on a 1-cm2 area of the CAM inside a silicon ring. After 48 hours of incubation at 37°C, CAMs were fixed in situ with saline-buffered formalin, excised from the eggs, placed on slides, and left to dry in air. Photographs were taken and the total length of the vessels was measured as described.

[4] = test system: nucleolin; conditions: cited from earlier work
Excerpt: HB-19 presents pentavalently the tripeptide Kψ(CH2N)PR in which the reduced peptide bond provides high stability against serum proteases (Figure 1). HB-19 forms a stable complex with the cell-surface expressed nucleolin and is internalized by an active process. This le ... || The interaction of HB-19 with surface nucleolin was investigated using human breast cancer MDA-MB-231 tumor cells and human umbilical vein endothelial cells (HUVECs). […] Similarly, HB-19/Btn binds and forms a stable complex with surface nucleolin in a dose-dependent manner in both types of cell ... || Previously, guanosine-rich phosphodiester oligonucleotides (referred to as GROs) and endostatin have been reported to exert antitumoral and antiangiogenic activity, respectively, through interaction with surface nucleolin [21], [41], [42]. […] At 20°C, GRO ... || (+ 1 further places)

## pseudo-tripeptide Lysψ(CH2N)-Pro-Arg coupled to a template (H2NLys-Lys-Lys-Gly-Pro-Lys-Glu-Lys-AhxCONH2) [HB-19, pseudopeptide presenting pentavalently the pseudo-tripeptide Lysψ(CH2N)-Pro-Arg coupled to a template]
[1]
  colony formation: reduced markedly
[2]
  inhibition of HUVEC proliferation: inhibited dramatically both of these events down to levels comparable to that of unstimulated cells
[3]; 0.4 nmol HB-19 (10 µM, 40 µl)
  relative percent inhibition of angiogenesis: 27%
[3]; 0.8 nmol HB-19 (20 µM, 40 µl)
  relative percent inhibition of angiogenesis: 36%
[3]; 2 nmol HB-19 (50 µM, 40 µl)
  relative percent inhibition of angiogenesis: 51%
[3]; HB-19 10, 20 and 50 µM
  blood vessel branching and development: impaired significantly blood vessel branching and development in a dose-dependent manner
[4]
  binding site on nucleolin: binds the C-terminal RGG domain of cell-surface expressed nucleolin
  heparan sulfate proteoglycan requirement of binding to surface nucleolin: endostatin but not HB-19 binding to surface nucleolin requires heparan sulfate proteoglycans
[4]; physiological conditions
  reversibility of binding to surface nucleolin: bind surface nucleolin in an irreversible manner
